Results: article PMC4357465, “Tool Compounds Robustly Increase Turnover of an Artificial Substrate by Glucocerebrosidase in Human Brain Lysates” (PLoS ONE, 2015)
“Also recorded” adds a separate entry of the source.

Target: T1, recombinant GBA3 (Homo sapiens, UniProt Q9H227)
T1 construct: purchased R&D Systems 5969-GH-10
T1 sequence (Q9H227 1-469): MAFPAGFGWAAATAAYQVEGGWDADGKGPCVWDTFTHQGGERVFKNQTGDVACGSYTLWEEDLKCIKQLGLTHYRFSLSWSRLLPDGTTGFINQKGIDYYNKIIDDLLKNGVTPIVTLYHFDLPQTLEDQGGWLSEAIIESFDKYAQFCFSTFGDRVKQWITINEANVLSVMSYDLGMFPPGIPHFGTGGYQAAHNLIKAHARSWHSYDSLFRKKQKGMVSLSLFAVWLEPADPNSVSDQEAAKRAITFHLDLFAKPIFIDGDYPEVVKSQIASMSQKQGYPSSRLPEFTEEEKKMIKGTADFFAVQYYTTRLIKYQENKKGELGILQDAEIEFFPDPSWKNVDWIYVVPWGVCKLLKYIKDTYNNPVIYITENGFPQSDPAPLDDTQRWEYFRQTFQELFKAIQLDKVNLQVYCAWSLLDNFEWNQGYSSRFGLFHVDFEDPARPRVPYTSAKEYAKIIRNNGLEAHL
Assay: cell-free 4MUG assay with recombinant GBA3
Type: biochemical
Settings: for less potent against GBA3 than GBA1: selectivity GBA1 over GBA3
Protocol: After incubation, 100 μl of assay buffer was added to the plate. The assay buffer was composed of 0.1 M citric acid and 0.2 M sodium phosphate dibasic adjusted to pH = 5.4 unless stated otherwise (McIlvaine Buffer). […] For IC50 and EC50 experiments using compounds an assay buffer of pH 5.4 was used.
The substrate, 4-methylumbelliferyl β-D-glucopyranoside (4MUG, Sigma, M3633) was then added to the plate to a final concentration of 1.7 mM (25 μl). 4MUG was freshly solubilized in water at 37°C prior to each experiment. The recombinant protein, compound, assay buffer, and substrate were incubated at 37°C for 30 minutes.
In experiments directly comparing enzymatic activities of GBA1, GBA2 and GBA3 (S1 Fig., S2 Fig. c, d) the following conditions were used. […] A 10-fold intermediate solution of compound serial dilution was prepared in an assay buffer; half log dilutions were used. […] 2 mM solution of 4MUG was prepared in an assay buffer. To start the reaction, 4.5 μl/well of this solution was added to the enzyme plate and was incubated for 30 minutes at 37°C. To stop the reaction, a 1M glycine solution, adjusted to pH = 10 using 1M NaOH was used. […] To test the effect of sodium taurocholate (Sigma, T4009), the assay was performed using the same procedure described in this paragraph. The assay buffer contained either 0mM (same as above), 3 mM, 7 mM or 20 mM Sodium Taurocholate.

| effect on GBA3 activity (1 μM) | less potent against GBA3 than GBA1 | less potent against GBA3 than GBA1 (listed as isofagomine) | Compound | effect on activity of recombinant GBA3 (dose response, within the concentrations tested) |
| --- | --- | --- | --- | --- |
| – | – | – | O[C@H]1[C@H](O)[C@@H](O)[C@@H]2O[C@@H]2[C@@H]1O [CBE] | did not inhibit; also recorded: does not alter activity |
| did not have any substantial effect | > 100 fold | ≥ 100 fold | OC[C@H]1CNC[C@@H](O)[C@@H]1O [Isofagomine, isofagomine] | – |
